# Marks after values point to notes of the source that are not given here.
# How the values were obtained:
# Yoshida reticulosarcoma = experiment: Survival of rats bearing Yoshida ascites reticulosarcoma; type: in vivo, Wistar rats; settings: T/C
# Source text: (§1) The antineoplastic activity of the compounds of the invention has been investigated testing the compounds of the chemical group "in vivo" against experimental rodent tumors such as the solid form of Ehrlich tumour (STE, originally mammary adenocarcinoma), tumor HK (also transplantable originally mammary adenocarcinoma), Krebs' ascites tumour (Kr2), S37 ascites sarcoma, Nemeth-Keller lymphoma (NK), all maintained in mice H, Gardner lymphosarcoma (LsG, maintained in mice C3H), P388 and/or L1210 leukemia (maintained in DBA2 mice), B16 metastasizing melanocarcinoma (maintained in C57B1/6 mice) and Yoshida ascites reticulosarcoma (Y, maintained in Wistar rats) in experiments according to Jelinek, V. [Neoplasma 12, 469 (1965); ibid 7, 146 (1960)] and in "in vitro" experiments using radioactive precursors of nucleic acids and proteins according to Miko, M. et al. [Cancer Res 39, 4242 (1979); Neoplasma 26, 449 (1979); ibid 16, 161 (1969)] with minor modifications [Mattern, J.: Studies on the Drug Sensitivity of Short Term Cultured Tumour Cell Suspensions. In "Human Tumours in Short Term Culture" (Dendy, P.P. ed.), p.301, Academic Press 1976]. The Cox's proportional-hazards model was used for survival evaluation and optimal dose calculation according to Carter, V.H. et al. [cf Cancer Res. 42, 2963 (1982)].
# Seventy infantile Vistar female rats weighing 63.0-64.8 g were divided into seven groups: one control group and six experimental groups of 10 animal each. A lethal dose of the Yoshida reticulosarcoma ascitic fluid was implanted intraperitoneally to all the animals. The animals of test groups were treated using the compound suspended in water. The suspension contained the substance in such a concentration that dose 0.6, 0.4 and/or 0.2 ml of the suspension was equal to dose 200, 100 and/or 50 mg/kg p.o., or 40, 20 and/or 10 mg/kg s.c., respectively. Doses of the drug were administered to the experimental animals once a day, for five consecutive days, starting on the first day after tumour transplantation. In all animals survival was followed. It was observed that the treated animals survived longer than untreated control animals. […] The results of the experiment are summarized in the following table and shown in the graph on the Fig. 1.
# Sa37 sarcoma = experiment: Antitumour activity in S37 ascites sarcoma bearing mice (tumour weight, total ascitocrit, survival); type: in vivo, mice H
# Source text: as §1
# Eighty female mice H weighing approximately 20 g were divided into four groups: one control group and three experimental groups of 20 animal each. A lethal dose of the Sa37 sarcoma ascitic fluid was implanted intraperitoneally to all the animals. The animals of test groups were treated using the compound suspended in water. The suspension contained the substance in such a concentration that dose 0.6, 0.4 and/or 0.2ml of the suspension p.o. was equal to dose 240, 160 and/or 80 mg/kg p.o., respectively. The drug was administered to the experimental animals once, a day after tumour transplantation. On the tenth day after the tumour transplantation, half of the animals in each group were killed by ether anaesthesia, ascites were emptied after laparotomia and the tumour weight was assessed in all animals from the weight difference before and after laparotomia and ascites removing. In ascites fluid the volume of tumour cell fraction was determined. The remaining animals were left to monitor the time of death and survival time was followed. […] It was also observed that the treated animals survived longer than untreated control animals. […] The results of the experiment are summarized in the following table: Antitumour activity of 6-[2-(2-hydroxyethyl)aminoethyl]5,11-dioxo-5,6-dihydro-11H-indeno[1,2-c]isoquinoline (the substance I, X=2) in S37 sarcoma bearing mice.
# In an analogous experiment carried out on the animals with implanted Sa37 sarcoma the substance I (X=2) was administered in seven daily doses, and the substance I (X=3) in four days. The results of the experiment are summarized in the following table: Antitumour activity of 6-[2-(2-hydroxyethyl)aminoethyl]5,11-dioxo-5,6-dihydro-11H-indeno[1,2-c]isoquinoline (the substance I, X=2) and 6-[3-(2-hydroxyethyl)aminopropyl]5,11-dioxo-5,6-dihydro-11H-indeno[1,2-c]isoquinoline (the substance I, X=3) in S37 bearing mice.
# In an experiment carried out on the animals with implanted Sa37 sarcoma the substance I (X=0) was administered in eight daily doses (analogously as in example 6).
# [1] = 10 mg/kg p.o., seven daily doses
# [2] = 20 mg/kg p.o., seven daily doses
# [3] = 30 mg/kg p.o., seven daily doses
# [4] = 80 mg/kg p.o. once, a day after tumour transplantation, assessed on the tenth day
# [5] = 160 mg/kg p.o. once, a day after tumour transplantation, assessed on the tenth day
# [6] = 240 mg/kg p.o. once, a day after tumour transplantation, assessed on the tenth day
smiles,measurement,setting,value
"O=C1c2ccccc2-c2c1c1ccccc1c(=O)n2CCNCCO [I (X=2), 6-[2-(2-hydroxyethyl)aminoethyl]-5,11-dioxo-5,6-dihydro-11H-indeno[1,2-c]isoquinoline]",Period of survival (% of control),Yoshida reticulosarcoma; p.o. 50 mg/kg once a day for five consecutive days,132%
same,Period of survival (% of control),Yoshida reticulosarcoma; p.o. 100 mg/kg once a day for five consecutive days,"230^b,^e) %"
same,Period of survival (% of control),Yoshida reticulosarcoma; p.o. 200 mg/kg once a day for five consecutive days,"219^b,^d) %"
same,Period of survival (% of control),Yoshida reticulosarcoma; s.c. 10 mg/kg once a day for five consecutive days,203 ^b) %
same,Period of survival (% of control),Yoshida reticulosarcoma; s.c. 20 mg/kg once a day for five consecutive days,139^a) %
same,Period of survival (% of control),Yoshida reticulosarcoma; s.c. 40 mg/kg once a day for five consecutive days,86%
same,"Survival time (T/C, %)",Sa37 sarcoma; [1],129%
same,"Total ascitocrit (T/C, %)",Sa37 sarcoma; [1],73^b) %
same,"Tumour weight (T/C, %)",Sa37 sarcoma; [1],66^b) %
same,"Survival time (T/C, %)",Sa37 sarcoma; [2],129^a) %
same,"Total ascitocrit (T/C, %)",Sa37 sarcoma; [2],73^a) %
same,"Tumour weight (T/C, %)",Sa37 sarcoma; [2],64^b) %
same,"Survival time (T/C, %)",Sa37 sarcoma; [3],86%
same,"Total ascitocrit (T/C, %)",Sa37 sarcoma; [3],40^b) %
same,"Tumour weight (T/C, %)",Sa37 sarcoma; [3],32^b) %
same,"Survival time (T/C, %)","Sa37 sarcoma; 80 mg/kg p.o. once, a day after tumour transplantation",107%
same,"Total ascitocrit (T/C, %)",Sa37 sarcoma; [4],64^c) %
same,"Tumour weight (T/C, %)",Sa37 sarcoma; [4],61^c) %
same,"Survival time (T/C, %)","Sa37 sarcoma; 160 mg/kg p.o. once, a day after tumour transplantation",111%
same,"Total ascitocrit (T/C, %)",Sa37 sarcoma; [5],65^c) %
same,"Tumour weight (T/C, %)",Sa37 sarcoma; [5],59^c) %
same,"Survival time (T/C, %)","Sa37 sarcoma; 240 mg/kg p.o. once, a day after tumour transplantation",119^b) %
same,"Total ascitocrit (T/C, %)",Sa37 sarcoma; [6],47^c) %
same,"Tumour weight (T/C, %)",Sa37 sarcoma; [6],42^c) %
